Assays:
[1] = system: Trichophyton rubrum (ATCC-28188); test: Checkerboard assay of fatty acid/ester with antifungals on Trichophyton rubrum (ATCC 28188); type: cell-based; parameters: key to FIC index: FIC index = sum of FICs; FIC = agent conc in well / agent MIC; settings: for MIC: Trichophyton rubrum, ATCC28188, agent alone
Method: (§1) The synergy is measured by determining the fractional inhibitory concentration (FIC) value of the combination. This experimental set up, called checkerboard method, allows measurement of a desired effect (inhibition of fungal growth in this case) at different combinations of various concentrations of the two agents (antifungal agent and fatty acid/ester). […] No agent is added to the penultimate column on the right and the bottom row. The final column on the right is used for growth control (only inoculum in broth) and sterility control (broth alone, no inoculum). […] FIC value for each agent in a particular well of the checkerboard layout was calculated by dividing the agent concentration in that well by the established MIC value of the agent against the test organism (Hsieh et al., Synergy assessed by checkerboard: A critical Analysis, Diagn. Microbiol. Infect Dis. (1993) 16:343-349). FIC values for both agents in a particular well were calculated in this way followed by determination of the FIC index (sum of the FICs of each drug in the concerned well). […] Agents Chemother. (2010) 54(2): 602-609].
(§2) Using the checkerboard layout experimental setup described above (FIG. 1A), various medium-chain fatty acids were tested for their ability to potentiate the activity of a known antifungal agent. Concentrations above and below the MIC of each test agent were tested using serial dilution. The same procedure was expanded to test combinations of various medium-chain fatty acids C-1 to C-14 (such caprylic acid, undecylenic acid and lauric acid) and esters thereof, with antifungal agents from various classes including azoles, allylamines, benzylamines, zinc pyrithione and piroctone olamine against both susceptible and resistant Trichophyton spp. (filamentous fungus) and Candida spp. (yeast).
(§3) Potentiation of the activity of antimycotic agents using ester derivatives of medium chain fatty acids was tested in a standard, well accepted in vitro assay system to check for synergy. This experimental set up, called checkerboard method, allows measurement of a desired effect (inhibition of fungal growth in this case) at different combinations of various concentrations of two agents. A chosen medium chain fatty acid (C-1 to C-14) or its ester derivative was tested for its ability to potentiate the activity of a known antifungal agent (various classes) using the checkerboard layout. Various concentrations above and below the MIC of each test agent were tested using serial dilution in Sabouraud dextrose broth. […] FIC value for a drug in a particular well of the checkerboard layout is calculated by dividing the drug concentration in that well by the established MIC value of the drug against the test organism (Hsieh et al., Synergy assessed by checkerboard: A critical Analysis, Diagn. Microbiol. Infect Dis. (1993) 16:343-349). FIC values for both test agents in a particular well are calculated in this way followed by determination of the FIC index (sum of the FICs of each drug in the concerned well).

[2] = system: azole resistant C. albicans MTCC 227; test: Checkerboard assay on azole resistant C. albicans MTCC 227; type: cell-based, Candida albicans; settings: for MIC: Candida albicans, MTCC227, agent alone
Method: as §1, with “FIC” for “FIC value for each agent in a particular well of the checkerboard layout was calculated by dividing the agent concentration in that well by the established MIC value of the agent against the test organism (Hsieh et al., Synergy assessed by checkerboard: A critical Analysis, Diagn. Microbiol. Infect Dis. (1993) 16:343-349). FIC”, “Chemother.” for “Chemother. (2010) 54(2): 602-609].”
as §2
as §3, with “FIC” for “FIC value for a drug in a particular well of the checkerboard layout is calculated by dividing the drug concentration in that well by the established MIC value of the drug against the test organism (Hsieh et al., Synergy assessed by checkerboard: A critical Analysis, Diagn. Microbiol. Infect Dis. (1993) 16:343-349). FIC”

[3] = Table 2, propylene glycol monocaprylate series
[4] = Table 3, glyceryl monocaprylate series
[5] = Table 4, undecylenic acid (C11) series
[6] = Table 5, lauric acid (C12) series
[7] = Table 6, propylene glycol monolaurate series
[8] = agent's MIC in combination antifungal + caprylic acid (partner: other agent of same combination no.)
[9] = agent's MIC in combination antifungal + glyceryl monocaprylate (partner: other agent of same combination no.)
[10] = agent's MIC in combination antifungal + lauric acid (partner: other agent of same combination no.)
[11] = agent's MIC in combination antifungal + propylene glycol monocaprylate (partner: other agent of same combination no.)
[12] = agent's MIC in combination antifungal + propylene glycol monolaurate (partner: other agent of same combination no.)
[13] = agent's MIC in combination antifungal + undecylenic acid (partner: other agent of same combination no.)
[14] = antifungal in combination with caprylic acid
[15] = antifungal in combination with glyceryl monocaprylate
[16] = antifungal in combination with lauric acid
[17] = antifungal in combination with propylene glycol monocaprylate
[18] = antifungal in combination with propylene glycol monolaurate
[19] = antifungal in combination with undecylenic acid
[20] = combination antifungal + caprylic acid
[21] = combination antifungal + glyceryl monocaprylate
[22] = combination antifungal + lauric acid
[23] = combination antifungal + propylene glycol monocaprylate
[24] = combination antifungal + propylene glycol monolaurate
[25] = combination antifungal + undecylenic acid
[26] = Table 9, caprylic acid (C8) series
[27] = Table 10, propylene glycol monocaprylate series
[28] = Table 11, glyceryl monocaprylate series
[29] = Table 12, undecylenic acid (C11) series
[30] = Table 13, lauric acid (C12) series
[31] = Table 14, propylene glycol monolaurate series

With `C=C1CCN([C@H](C)[C@](O)(Cn2cncn2)c2ccc(F)cc2F)CC1` [Efinaconazole] the MIC ([1]; Table 1, caprylic acid series) was 0.125 µg/mL, the MIC [1, 3] was 0.125 µg/mL and the MIC [1, 4] was 0.125 µg/mL. For the same molecule, the MIC [1, 5] was 0.03 µg/mL, the MIC [1, 6] was 0.03 µg/mL and the MIC [1, 7] was 0.03 µg/mL. The “Combination MIC” value [1, 8] was 0.0625 µg/mL, the “Combination MIC” value [1, 9] was 0.0625 µg/mL and the “Combination MIC” value [1, 10] was 0.015 µg/mL. For the same molecule, the “Combination MIC” value [1, 11] was 0.007 µg/mL, the “Combination MIC” value [1, 12] was 0.008 µg/mL and the “Combination MIC” value [1, 13] was 0.015 µg/mL. The FIC index [1, 14] was 0.625, the Interaction [1, 14] was “Synergistic (Combinations that gave FIC indices less than 1 were designated “synergistic”)” and the FIC index [1, 15] was 0.625. For the same molecule, the Interaction [1, 15] was “Synergistic (Combinations that gave FIC indices less than 1 were designated “synergistic”)”, the FIC index [1, 16] was 0.75 and the Interaction [1, 16] was “Synergistic (Combinations that gave FIC indices less than 1 were designated “synergistic”)”. For the same molecule, the FIC index [1, 17] was 0.556, the Interaction [1, 17] was “Synergistic (Combinations that gave FIC indices less than 1 were designated “synergistic”)” and the FIC index [1, 18] was 0.76. The Interaction [1, 18] was “Synergistic (Combinations that gave FIC indices less than 1 were designated “synergistic”)”, the FIC index [1, 19] was 0.74 and the Interaction [1, 19] was “Synergistic (Combinations that gave FIC indices less than 1 were designated “synergistic”)”. For the same molecule, the FIC [1, 20] was 0.5, the FIC [1, 21] was 0.5 and the FIC [1, 22] was 0.5. The FIC [1, 23] was 0.056, the FIC [1, 24] was 0.266 and the FIC [1, 25] was 0.5. For the same molecule, the MIC [2, 26] was 128 µg/mL, the MIC [2, 27] was 128 µg/mL and the MIC [2, 28] was 128 µg/mL. It also gave an MIC [2, 29] of 128 µg/mL, an MIC [2, 30] of 128 µg/mL and an MIC [2, 31] of 128 µg/mL. For the same molecule, the “Combination MIC” value [2, 8] was 0.5 µg/mL, the “Combination MIC” value [2, 9] was 1 µg/mL and the “Combination MIC” value [2, 10] was 0.5 µg/mL. The “Combination MIC” value [2, 11] was 4 µg/mL, the “Combination MIC” value [2, 12] was 0.5 µg/mL and the “Combination MIC” value [2, 13] was 4 µg/mL. The FIC index [2, 14] was 0.3, the Interaction [2, 14] was “Synergistic (Combinations that gave FIC indices less than 1 were designated “synergistic”)” and the FIC index [2, 15] was 0.257. For the same molecule, the Interaction [2, 15] was “Synergistic (Combinations that gave FIC indices less than 1 were designated “synergistic”)”, the FIC index [2, 16] was 0.128 and the Interaction [2, 16] was “Synergistic (Combinations that gave FIC indices less than 1 were designated “synergistic”)”. The FIC index [2, 17] was 0.281, the Interaction [2, 17] was “Synergistic (Combinations that gave FIC indices less than 1 were designated “synergistic”)” and the FIC index [2, 18] was 0.018. The Interaction [2, 18] was “Synergistic (Combinations that gave FIC indices less than 1 were designated “synergistic”)”, the FIC index [2, 19] was 0.093 and the Interaction [2, 19] was “Synergistic (Combinations that gave FIC indices less than 1 were designated “synergistic”)”. It also gave an FIC [2, 20] of 0.062, an FIC [2, 21] of 0.007 and an FIC [2, 22] of 0.003. The FIC [2, 23] was 0.031, the FIC [2, 24] was 0.003 and the FIC [2, 25] was 0.031.

With `CCC(C)n1ncn(-c2ccc(N3CCN(c4ccc(OCC5COC(Cn6cncn6)(c6ccc(Cl)cc6Cl)O5)cc4)CC3)cc2)c1=O` (stereo not drawn) [Itraconazole] the MIC ([1]; Table 1, caprylic acid series) was 0.125 µg/mL, the MIC [1, 3] was 0.125 µg/mL and the MIC [1, 4] was 0.125 µg/mL. It also gave an MIC [1, 5] of 0.125 µg/mL, an MIC [1, 6] of 0.125 µg/mL and an MIC [1, 7] of 0.125 µg/mL. The “Combination MIC” value [1, 8] was 0.0312 µg/mL, the “Combination MIC” value [1, 9] was 0.007 µg/mL and the “Combination MIC” value [1, 10] was 0.06 µg/mL. For the same molecule, the “Combination MIC” value [1, 11] was 0.015 µg/mL, the “Combination MIC” value [1, 12] was 0.06 µg/mL and the “Combination MIC” value [1, 13] was 0.0312 µg/mL. The FIC index [1, 14] was 0.5, the Interaction [1, 14] was “Synergistic (Combinations that gave FIC indices less than 1 were designated “synergistic”)” and the FIC index [1, 15] was 0.562. For the same molecule, the Interaction [1, 15] was “Synergistic (Combinations that gave FIC indices less than 1 were designated “synergistic”)”, the FIC index [1, 16] was 0.75 and the Interaction [1, 16] was “Synergistic (Combinations that gave FIC indices less than 1 were designated “synergistic”)”. The FIC index [1, 17] was 0.625, the Interaction [1, 17] was “Synergistic (Combinations that gave FIC indices less than 1 were designated “synergistic”)” and the FIC index [1, 18] was 0.6. For the same molecule, the Interaction [1, 18] was “Synergistic (Combinations that gave FIC indices less than 1 were designated “synergistic”)”, the FIC index [1, 19] was 0.75 and the Interaction [1, 19] was “Synergistic (Combinations that gave FIC indices less than 1 were designated “synergistic”)”. For the same molecule, the FIC [1, 20] was 0.25, the FIC [1, 21] was 0.0625 and the FIC [1, 22] was 0.5. It also gave an FIC [1, 23] of 0.125, an FIC [1, 24] of 0.48 and an FIC [1, 25] of 0.25. It also gave an MIC [2, 26] of 32 µg/mL, an MIC [2, 27] of 64 µg/mL and an MIC [2, 28] of 32 µg/mL. The MIC [2, 29] was 32 µg/mL, the MIC [2, 30] was 32 µg/mL and the MIC [2, 31] was 32 µg/mL. For the same molecule, the “Combination MIC” value [2, 8] was 4 µg/mL, the “Combination MIC” value [2, 9] was 4 µg/mL and the “Combination MIC” value [2, 10] was 0.125 µg/mL. The “Combination MIC” value [2, 11] was 0.125 µg/mL, the “Combination MIC” value [2, 12] was 2 µg/mL and the “Combination MIC” value [2, 13] was 0.125 µg/mL. For the same molecule, the FIC index [2, 14] was 0.25, the Interaction [2, 14] was “Synergistic (Combinations that gave FIC indices less than 1 were designated “synergistic”)” and the FIC index [2, 15] was 0.375. For the same molecule, the Interaction [2, 15] was “Synergistic (Combinations that gave FIC indices less than 1 were designated “synergistic”)”, the FIC index [2, 16] was 0.253 and the Interaction [2, 16] was “Synergistic (Combinations that gave FIC indices less than 1 were designated “synergistic”)”. For the same molecule, the FIC index [2, 17] was 0.064, the Interaction [2, 17] was “Synergistic (Combinations that gave FIC indices less than 1 were designated “synergistic”)” and the FIC index [2, 18] was 0.07. For the same molecule, the Interaction [2, 18] was “Synergistic (Combinations that gave FIC indices less than 1 were designated “synergistic”)”, the FIC index [2, 19] was 0.066 and the Interaction [2, 19] was “Synergistic (Combinations that gave FIC indices less than 1 were designated “synergistic”)”. It also gave an FIC [2, 20] of 0.125, an FIC [2, 21] of 0.125 and an FIC [2, 22] of 0.003. The FIC [2, 23] was 0.002, the FIC [2, 24] was 0.0625 and the FIC [2, 25] was 0.003.

Source: patent US20190142800A1, “SYNERGISTIC ANTIFUNGAL COMPOSITIONS AND METHODS THEREOF” (VYOME THERAPEUTICS LIMITED, priority 2016, published 2019)
